For 16 compounds, inhibition and IC50 results are on record in patent US8324395B2, “Heterocyclic compound and use thereof” (Takeda Pharmaceutical Company Limited, priority 2007, dated 2012).

In one assay the target is T1, BRAF (V600E) kinase (Homo sapiens, UniProt P15056, V600E).
T1 construct: Flag (N); made in house; host or cells: SF-21 insect cells, recombinant baculovirus BAC-V600E
T1 sequence (P15056 457-717 V600E limits assumed): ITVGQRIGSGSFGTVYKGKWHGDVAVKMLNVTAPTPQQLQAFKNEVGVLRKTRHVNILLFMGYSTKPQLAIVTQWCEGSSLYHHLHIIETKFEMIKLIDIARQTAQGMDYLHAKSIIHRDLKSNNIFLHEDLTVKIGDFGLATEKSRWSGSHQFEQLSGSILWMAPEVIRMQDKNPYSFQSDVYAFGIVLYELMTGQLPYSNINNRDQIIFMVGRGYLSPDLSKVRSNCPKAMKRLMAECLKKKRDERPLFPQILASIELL
Kind of assay: Determination of BRAF (V600E) kinase inhibitory activity. Conditions: 1.0 μM test compound; BRAF (V600E) enzyme, GST-MEK1 (K96R) substrate, [γ-32P]ATP; read-out: Inhibitory rate (%) at 1.0 μM. The assay is classed as biochemical. How it is done:
Human BRAF gene was cloned by PCR using human Testis cDNA library (Clontech) as a template. The primer used for PCR was prepared from base sequence (Genbank Accession No.: NM_004333) information of BRAF gene by adding a base sequence encoding flag peptide and a recognition sequence of the restriction enzyme to area encoding the BRAF kinase domain region, so that the protein contains an N-terminal. Flag. The primer base sequence is shown below.
The PCR reaction was conducted using Pyrobest (Takara Shuzo Co., Ltd). The obtained PCR product was electrophoresed on agarose gel (1%), the DNA fragment amplified by PCR was recovered from the gel, and then digested with restriction enzymes EcoRI and SalI. The DNA treated with the restriction enzymes was electrophoresed on agarose gel (1%), and the obtained DNA fragment was recovered. The recovered DNA fragment was ligated to plasmid pFASTBAC1 (Invitrogen) digested with restriction enzymes EcoRI and SalI to give expression plasmid pFB-BRAF, and the base sequence of the insert fragment was confirmed. In addition, mutation was introduced into V600E using a Quick change Site Directed Mutagenesis kit (Stratagene). The base sequences of the primers used are shown in the following.
The obtained plasmid was sequenced to confirm the introduction of mutation into V600E. The DNA was digested with restriction enzymes EcoRI and SalI, DNA treated with the restriction enzymes was electrophoresed on agarose gel (1%), and the obtained DNA fragment was recovered. The recovered DNA fragment was ligated to plasmid pFASTBAC1 (Invitrogen) digested with restriction enzymes EcoRI and SalI to give expression plasmid pFB-V600E.
Using BAC-TO-BAC Baculovirus Expression System (Invitrogen), virus stock BAC-V600E of recombinant baculovirus was prepared.
SF-21 cells were sown at 1×10^6 cells/mL to Sf-900II SFM medium (1 L, Invitrogen) containing 10% fetal bovine serum (Trace), 50 mg/L Gentamicin (Invitrogen) and 0.1% Pluronic F-68 (Invitrogen), and shaking culture was performed using a 2 L volume Erlenmeyer flask at 27° C., 100 rpm. After culturing for 24 hr, recombinant baculovirus BAC-V600E (13.4 mL) was added to the mixture, and the mixture was further cultured for 3 days. The culture medium was centrifuged at 2,000 rpm for 5 min to give virus-infected cells. The infected cells were washed with a phosphate buffered saline (Invitrogen), centrifuged under the same conditions, and the cells were preserved at −80° C. The cryopreserved cells were thawed in ice, suspended in buffer A (50 mM Tris buffer (30 mL, pH 7.4) containing 20% glycerol, 0.15 M NaCl) supplemented with Complete Protease Inhibitor (Boehringer), and ruptured 3 times with a Polytron homogenizer (Kinematica) at 20,000 rpm for 30 sec. The ruptured medium was clarified by centrifugation at 40,000 rpm for 30 min and filtered with a 0.45 μm filter. The filtrate was passed through a column packed with Anti-FLAG M2 Affinity Gel (4 mL, Sigma) at a flow rate of about 0.5 mL/min. The column was washed with buffer A, and eluted with buffer A containing 100 μg/mL of FLAG peptide. The buffer of this eluate was exchanged using NAP25 column (Amersham Bioscience) equilibrated with buffer A and the fractions were cryopreserved at −80° C.
A test compound (2.5 μL) dissolved in dimethyl sulfoxide (DMSO) was added to 37.5 μL of a reaction mixture (25 mM HEPES (pH 7.5), 10 mM magnesium acetate, 1 mM dithiothreitol) containing BRAF (V600E) enzyme (30 ng) and recombinant type protein GST-MEK1 (K96R) 250 ng, and the mixture was incubated at room temperature for 10 min. ATP solution (10 μL, 2.5 μM ATP, 0.1 μCi [γ-^32P]ATP) was added to the obtained mixture, and the mixture was reacted at room temperature for 20 min. The reaction was quenched by adding 50 μL of ice-cooled. 20% trichloroacetic acid (Wako Pure Chemical Industries, Ltd.) to the reaction mixture. […]
As to `O=C(Nc1cccc(Oc2ccc3nc(NC(=O)C4CC4)[nH]c3c2)c1)c1cccc(C(F)(F)F)c1` [Example C1, N-[3-({2-[(cyclopropylcarbonyl)amino]-1H-benzimidazol-6-yl}oxy)phenyl]-3-(trifluoromethyl)benzamide], the inhibition at 1 µM was determined as 99%. Same read-out and setting: with `N#CC1(c2cccc(C(=O)Nc3cccc(Oc4ccc5nc(NC(=O)C6CC6)sc5c4)c3)c2)CC1` [Example A1, 3-(1-cyanocyclopropyl)-N-[3-({2-[(cyclopropylcarbonyl)amino]-1,3-benzothiazol-6-yl}oxy)phenyl]benzamide] the figure was 98%; with `O=C(Nc1cccc(C(F)(F)F)c1)c1cccc(Oc2ccc3nc(NC(=O)C4CC4)sc3c2)c1` [Example A29, 3-({2-[(cyclopropylcarbonyl)amino]-1,3-benzothiazol-6-yl}oxy)-N-[3-(trifluoromethyl)phenyl]benzamide], 100%; with `Cc1ccc(Oc2ccc3nc(NC(=O)CO)sc3c2)cc1NC(=O)c1cccc(C2(C#N)CC2)c1` [Example A6, 3-(1-cyanocyclopropyl)-N-(5-{[2-(glycoloylamino)-1,3-benzothiazol-6-yl]oxy}-2-methylphenyl)benzamide], 99%.

For `COc1ccc(NC(=O)c2cccc(C(C)(C)C#N)c2)cc1Oc1ccc2nc(NC(=O)C3CC3)sc2c1` [Example A21, 3-(1-cyano-1-methylethyl)-N-[3-({2-[(cyclopropylcarbonyl)amino]-1,3-benzothiazol-6-yl}oxy)-4-methoxyphenyl]benzamide], the inhibition at 1 µM came out at 98%. Still for that read-out and setting: with `O=C(Nc1ccc(C(F)(F)F)cc1)c1cccc(Oc2ccc3nc(NC(=O)C4CC4)sc3c2)c1` [Example A25, 3-({2-[(cyclopropylcarbonyl)amino]-1,3-benzothiazol-6-yl}oxy)-N-[4-(trifluoromethyl)phenyl]benzamide] the figure was 100%; with `O=C(Nc1cccc(Oc2ccc3nc(NC(=O)C4CC4)oc3c2)c1)c1cccc(C(F)(F)F)c1` [Example B1, N-[3-({2-[(cyclopropylcarbonyl)amino]-1,3-benzooxazol-6-yl}oxy)phenyl]-3-(trifluoromethyl)benzamide], 100%; with `N#CC1(c2cccc(C(=O)Nc3cccc(Oc4ccc5nc(NC(=O)c6cocn6)sc5c4)c3)c2)CC1` [Example A15, N-[6-(3-{[3-(1-cyanocyclopropyl)benzoyl]amino}phenoxy)-1,3-benzothiazol-2-yl]-1,3-oxazole-4-carboxamide], 100%.

The subject of a further assay is Colon Cancer Cell HT-29 Intracellular MEK Phosphorylation. The experiment in a line: Colon cancer cell HT-29 intracellular MEK phosphorylation inhibitory action in vitro. The format is cell-based. Particulars: Homo sapiens; HT-29 cells, 2 hr treatment; phosphorylated MEK1/2 (Ser217/221) by Western blot. As to the method: A cell suspension (500 μL) of human colon cancer cell HT-29 was plated in a 48-well plate (100,000 cells/well), and the cells were cultured overnight at 37° C. in the presence of 5% CO2, treated with a test compound (250 μL/well) diluted in 3-fold dilution series and cultured for two more hours. After 2 hr, the culture medium containing the test compound was removed, and the cells were lysed with SDS sample buffer (100 μL/well) and heated at 95° C. for 5 min. Thereafter, the cells were applied to SDS-PAGE, and the protein was transferred onto Sequi-Blot™ PVDF Membrane (Bio-Rad) by the Western blot method. The cells were blocked with a block-Ace solution (Snow Brand Milk Products Co., Ltd) dissolved in phosphate buffer to 5% W/V, and reacted overnight with anti-phosphorylated MEK1/2 (Ser217/221) (Cell signaling #9121) diluted 1000-fold with phosphate buffer containing 0.4% block-Ace. The membrane was washed with phosphate buffer containing 0.1% Tween 20 (Wako Pure Chemical Industries, Ltd.), and reacted at room temperature for 1 hr with HRP labeled […] (Cell signaling #7074) diluted 1000-fold with phosphate buffer containing 0.4% block-Ace. The membrane was washed in the same manner as above, chemical luminescence of a phosphorylated MEK1/2 protein labeled with the antibody, which was caused by ECL-plus Detection Reagent (Amersham bioscience), was detected by Luminescent Image Analyzer LAS-1000 (FUJIFILM Corporation). Taking the luminescence of the control group free of the test compound as 100%, the concentration (IC50 value) of the compound necessary for inhibiting the residual luminescence to 50% of the control group was calculated.
On to `CN1CCN(CC(=O)Nc2nc3ccc(Oc4cccc(NC(=O)c5cccc(C6(C#N)CC6)c5)c4)cc3s2)CC1` [Example A16, 3-(1-cyanocyclopropyl)-N-{3-[(2-{[(4-methylpiperazin-1-yl)acetyl]amino}-1,3-benzothiazol-6-yl)oxy]phenyl}benzamide], for which the IC50 – broadly, the midpoint of a concentration-inhibition curve – is < 500 nM.

With `CC(C)(C#N)c1cccc(C(=O)Nc2cccc(Oc3ccc4nc(NC(=O)C5CC5)oc4c3)c2)c1` [Example B3, 3-(1-cyano-1-methylethyl)-N-[3-({2-[(cyclopropylcarbonyl)amino]-1,3-benzooxazol-6-yl}oxy)phenyl]benzamide], the IC50 is < 500 nM. As to `Cc1ccc(Oc2ccc3nc(NC(=O)CO)sc3c2)cc1NC(=O)c1cccc(C(C)(C)C#N)c1` [Example A10, 3-(1-cyano-1-methylethyl)-N-(5-{[2-(glycoloylamino)-1,3-benzothiazol-6-yl]oxy}-2-methylphenyl)benzamide], the IC50 is < 500 nM. Same read-out and setting: to `COc1ccc(NC(=O)c2cccc(C(C)(C)C#N)c2)cc1Oc1ccc2nc(NC(=O)C3CC3)sc2c1` [Example A21, 3-(1-cyano-1-methylethyl)-N-[3-({2-[(cyclopropylcarbonyl)amino]-1,3-benzothiazol-6-yl}oxy)-4-methoxyphenyl]benzamide] belongs < 500 nM; to `CC(C)(C#N)c1cccc(C(=O)Nc2cccc(Oc3ccc4nc(NC(=O)CO)sc4c3)c2)c1` [Example A14, 3-(1-cyano-1-methylethyl)-N-(3-{[2-(glycoloylamino)-1,3-benzothiazol-6-yl]oxy}phenyl)benzamide], < 500 nM; to `Cc1ccc(Oc2ccc3nc(NC(=O)C4CC4)sc3c2)cc1NC(=O)c1cccc(C(C)(C)C#N)c1` [Example A7, 3-(1-cyano-1-methylethyl)-N-[5-({2-[(cyclopropylcarbonyl)amino]-1,3-benzothiazol-6-yl}oxy)-2-methylphenyl]benzamide], < 500 nM. On the same count and under the same terms, to `O=C(CO)Nc1nc2ccc(Oc3cccc(C(=O)Nc4ccc(C(F)(F)F)cc4)c3)cc2s1` [Example A26, 3-{[2-(glycoloylamino)-1,3-benzothiazol-6-yl]oxy}-N-[4-(trifluoromethyl)phenyl]benzamide] belongs < 500 nM.

A further assay concerns human colon cancer cell HT-29. Kind of assay: Colon cancer cell HT-29 growth suppressive action in vitro. The assay is classed as cell-based. Particulars: 72 h, HT-29 cells, 3 days culture, SRB staining of cell protein. How it is done:
A cell suspension (100 μL, 3,000 cells/well) of human colon cancer cell HT-29 (purchased from ATCC) was plated in a 96-well plate, and the cells were cultured at 37° C. in a 5% carbon dioxide gas incubator. The next day, 2-fold serial dilution of each test compound solution (diluted from maximum concentration 20 μM) (100 μL) was added, and the cells were cultured for 3 days. The culture medium containing the test compound was removed, and the cells were washed with phosphate buffer (PBS). A 50% trichloroacetic acid solution was added to the final concentration of 10% (v/v), and the mixture was stood overnight at 4° C., whereby the cells were fixed to the plate. Then, a dye SRB 0.4% (w/v) solution (dissolved in 1% acetic acid) was added at 50 μl/well, whereby the cell protein was fixed and stained (Skehan et al., Journal Of National Cancer Institute, vol. 82, pp. 1107-1112, 1990). The cells were washed 3 times with 1% acetic acid solution (200 μL/well), and 100 μL of an extract (10 mM Tris buffer) was added to extract the dye. The absorbance at an absorption wavelength […] was measured, and cell amount was measured as a protein amount. Taking the protein amount of the control group free of the test compound solution as 100%, the proportion of the residual protein amount of each treatment group was determined and the concentration of the compound necessary for suppressing the residual cell amount to 50% of the control (IC50 value) was calculated.
In the case of `O=C(Nc1cccc(Oc2ccc3nc(NC(=O)C4CC4)sc3c2)c1)c1cccc(C(F)(F)F)c1` [Example A2, N-[3-({2-[(cyclopropylcarbonyl)amino]-1,3-benzothiazol-6-yl}oxy)phenyl]-3-(trifluoromethyl)benzamide], the IC50 is < 500 nM. On the same count and under the same terms, to `CC(=O)Nc1nc2ccc(Oc3ccc(C)c(NC(=O)c4cccc(C(C)(C)C#N)c4)c3)cc2s1` [Example A49, N-(5-{[2-(acetylamino)-1,3-benzothiazol-6-yl]oxy}-2-methylphenyl)-3-(1-cyano-1-methylethyl)benzamide] belongs < 500 nM.
